Measured values from patent US12077503B2, “Substituted cyclic amides and their use as herbicides” (FMC CORPORATION, priority 2015, dated 2024).

Columns and labels:
Format in all cases: in vivo
[1] = test system: blackgrass (Alopecurus myosuroides); assay: Test A postemergence
Source text: (§1) Seeds of plant species selected from barnyardgrass (Echinochloa crus-galli), Kochia (Kochia scoparia), ragweed (common ragweed, Ambrosia elatior), ryegrass, Italian (Italian ryegrass, Lolium multiflorum), crabgrass, large (Digitaria sanguinalis), giant foxtail (Setaria faberii), green foxtail (Setaria viridis), morningglory (Ipomoea spp.), pigweed (Amaranthus retroflexus), velvetleaf (Abutilon theophrasti), wheat (Triticum aestivum), and corn (Zea mays) were planted into a blend of loam soil and sand and treated preemergence with a directed soil spray using test chemicals formulated in anon-phytotoxic solvent mixture which included a surfactant.
(§2) At the same time, plants selected from these crop and weed species and also blackgrass (Alopecurus myosuroides), and Galium (catchweed bedstraw, Galium aparine) were planted in pots containing the same blend of loam soil and sand and treated with postemergence applications of test chemicals formulated in the same manner. Plants ranged in height from 2 to 10 cm and were in the one- to two-leaf stage for the postemergence treatment. Treated plants and untreated controls were maintained in a greenhouse for approximately 10 d, after which time all treated plants were compared to untreated controls and visually evaluated for injury. Plant response ratings, summarized in Table A, are based on a 0 to 100 scale where 0 is no effect and 100 is complete control. A dash (-) response means no test result.

[2] = test system: barnyardgrass (Echinochloa crus-galli); assay: Test A postemergence
Source text: as §1, §2

Kochia (Kochia scoparia) [3] = assay: Test A postemergence
Source text: as §1, §2

[4] = test system: giant foxtail (Setaria faberii); assay: Test A postemergence
Source text: as §1, §2

[5] = test system: ragweed (common ragweed, Ambrosia elatior); assay: Test A postemergence
Source text: as §1, §2

[6] = test system: wheat (Triticum aestivum); assay: Test A postemergence
Source text: as §1, §2

corn (Zea mays) = assay: Test A postemergence
Source text: as §1, §2

[7] = test system: ryegrass, Italian (Italian ryegrass, Lolium multiflorum); assay: Test A postemergence
Source text: as §1, §2

[8] = test system: pigweed (Amaranthus retroflexus); assay: Test A postemergence
Source text: as §1, §2

[9] = test system: Galium (catchweed bedstraw, Galium aparine); assay: Test A postemergence
Source text: as §1, §2

[10] = test system: barnyardgrass (Echinochloa crus-galli); assay: Test A preemergence; settings: Preemergence; for Plant response rating, Barnyardgrass: 125 g ai/ha, visual injury after approximately 10 d, 0 to 100 scale where 0 is no effect and 100 is complete control; for Barnyardgrass plant response rating (0 to 100 scale, 0 is no effect, 100 is complete control): 500 g ai/ha, visual injury approx. 10 d
Source text: as §1, §2

Kochia (Kochia scoparia) [11] = assay: Test A preemergence; settings: Preemergence; for Plant response rating, Kochia: 125 g ai/ha, visual injury after approximately 10 d, 0 to 100 scale where 0 is no effect and 100 is complete control; for Kochia plant response rating (0 to 100 scale, 0 is no effect, 100 is complete control): 500 g ai/ha, visual injury approx. 10 d
Source text: as §1, §2

[12] = test system: giant foxtail (Setaria faberii); assay: Test A preemergence; settings: Preemergence; for Plant response rating, Foxtail, Giant: 125 g ai/ha, visual injury after approximately 10 d, 0 to 100 scale where 0 is no effect and 100 is complete control; for Foxtail, Giant plant response rating (0 to 100 scale, 0 is no effect, 100 is complete control): 500 g ai/ha, visual injury approx. 10 d
Source text: as §1, §2

[13] = test system: ragweed (common ragweed, Ambrosia elatior); assay: Test A preemergence; settings: Preemergence; for Plant response rating, Ragweed: 125 g ai/ha, visual injury after approximately 10 d, 0 to 100 scale where 0 is no effect and 100 is complete control; for Ragweed plant response rating (0 to 100 scale, 0 is no effect, 100 is complete control): 500 g ai/ha, visual injury approx. 10 d
Source text: as §1, §2

[14] = test system: ryegrass, Italian (Italian ryegrass, Lolium multiflorum); assay: Test A preemergence; settings: Preemergence; for Plant response rating, Ryegrass, Italian: 125 g ai/ha, visual injury after approximately 10 d, 0 to 100 scale where 0 is no effect and 100 is complete control; for Ryegrass, Italian plant response rating (0 to 100 scale, 0 is no effect, 100 is complete control): 500 g ai/ha, visual injury approx. 10 d
Source text: as §1, §2

[15] = test system: pigweed (Amaranthus retroflexus); assay: Test A preemergence; settings: Preemergence; for Plant response rating, Pigweed: 125 g ai/ha, visual injury after approximately 10 d, 0 to 100 scale where 0 is no effect and 100 is complete control; for Pigweed plant response rating (0 to 100 scale, 0 is no effect, 100 is complete control): 500 g ai/ha, visual injury approx. 10 d
Source text: as §1, §2

[16] = 125 g ai/ha, postemergence, visual rating after approx. 10 d, 0 to 100 scale (0 no effect, 100 complete control)
[17] = Postemergence, 500 g ai/ha, 0 to 100 scale where 0 is no effect and 100 is complete control
[18] = 125 g ai/ha, postemergence, visual injury rating on 0 to 100 scale (0 no effect, 100 complete control), approx. 10 d

Structure (SMILES) | Plant response rating, Blackgrass [1, 17] | Plant response rating, Barnyardgrass [2, 17] | Plant response rating, Kochia (Kochia (Kochia scoparia) [3]; [16]) | Plant response rating, Kochia (Kochia (Kochia scoparia) [3]; [17]) | Plant response rating, Foxtail, Giant [4, 16] | Plant response rating, Foxtail, Giant [4, 17] | Plant response rating, Ragweed [5, 16] | Plant response rating, Ragweed [5, 17] | Plant response rating, Wheat [6, 16] | Plant response rating, Wheat [6, 17] | Plant response rating, Corn (corn (Zea mays); [16]) | Plant response rating, Corn (corn (Zea mays); [17]) | Plant response rating, Ryegrass, Italian [7, 16] | Plant response rating, Ryegrass, Italian [7, 17] | Plant response rating, Pigweed [8, 16] | Plant response rating, Pigweed [8, 17] | Plant response rating, Galium [9, 16] | Plant response rating, Galium [9, 17] | Plant response rating, Barnyardgrass [10] | Barnyardgrass plant response rating (0 to 100 scale, 0 is no effect, 100 is complete control) [10] | also measured
Cc1ccc(C2CN(C)C(=O)C2C(=O)Nc2ccccc2S(C)(=O)=O)c(F)c1 (stereo not shown) [Compound 558] | 60 | 100 | 20 | 70 | 70 | 90 | 0 | 40 | 0 | 40 | 0 | 20 | 0 | 40 | 0 | 0 | 30 | 60 | 90 | 100 | Plant response rating, Blackgrass [1, 16]: 20; Plant response rating, Barnyardgrass [2, 16]: 80; Plant response rating, Kochia (Kochia (Kochia scoparia) [11]): 70; Kochia plant response rating (0 to 100 scale, 0 is no effect, 100 is complete control) (Kochia (Kochia scoparia) [11]): 80; Plant response rating, Foxtail, Giant [12]: 90; Foxtail, Giant plant response rating (0 to 100 scale, 0 is no effect, 100 is complete control) [12]: 100; Plant response rating, Ragweed [13]: 50; Ragweed plant response rating (0 to 100 scale, 0 is no effect, 100 is complete control) [13]: 70; Plant response rating, Ryegrass, Italian [14]: 0; Ryegrass, Italian plant response rating (0 to 100 scale, 0 is no effect, 100 is complete control) [14]: 60; Plant response rating, Pigweed [15]: 30; Pigweed plant response rating (0 to 100 scale, 0 is no effect, 100 is complete control) [15]: 70
O=C(Nc1cccc(F)c1F)C1C(=O)N(C2C=CCCC2)CC1c1cccc(C(F)(F)F)c1 (stereo not shown) [Compound 525] | 30 | 40 | 0 | 0 | 20 | 60 | 0 | 0 | 0 | 0 | 0 | 0 | 0 | 0 | 0 | 0 | 0 | 0 | 30 | 50 | Blackgrass plant response rating [1, 18]: 0; Barnyardgrass plant response rating [2, 18]: 40; Plant response rating, Kochia (Kochia (Kochia scoparia) [11]): 0; Kochia plant response rating (0 to 100 scale, 0 is no effect, 100 is complete control) (Kochia (Kochia scoparia) [11]): 0; Plant response rating, Foxtail, Giant [12]: 30; Foxtail, Giant plant response rating (0 to 100 scale, 0 is no effect, 100 is complete control) [12]: 70; Plant response rating, Ragweed [13]: 0; Ragweed plant response rating (0 to 100 scale, 0 is no effect, 100 is complete control) [13]: 0; Plant response rating, Ryegrass, Italian [14]: 0; Ryegrass, Italian plant response rating (0 to 100 scale, 0 is no effect, 100 is complete control) [14]: 0; Plant response rating, Pigweed [15]: 0; Pigweed plant response rating (0 to 100 scale, 0 is no effect, 100 is complete control) [15]: 0
